Measurements taken from the NIST ThermoML archive (doi:10.1007/s10765-014-1718-x).

Settings: for thermal diffusivity: Optical interferometry; for speed of sound: Light diffraction method

CCCCC [pentane]
Settings | speed of sound [m/s] | thermal diffusivity [m2/s]
306.16 K, Liquid | – | 7.18e-08
308.14 K, Liquid | 963.73 | –
318.45 K, Liquid | 915.77 | –
323.16 K, Liquid | – | 6.84e-08
328.23 K, Liquid | 866.06 | –
338.02 K, Liquid | 815.68 | –
338.39 K, Liquid | – | 6.42e-08
348.32 K, Liquid | 765.39 | –
348.68 K, Gas | 189.16 | –
353.16 K, Liquid | – | 6.19e-08
358.13 K, Liquid | – | 6.07e-08
358.22 K, Gas | 187.01 | –
359.03 K, Liquid | 715.2 | –
362.37 K, Liquid | – | 5.91e-08
367.9 K, Gas | 185.11 | –
368.18 K, Liquid | – | 5.79e-08
368.31 K, Liquid | 667.88 | –
373.47 K, Liquid | – | 5.74e-08
377.79 K, Gas | 183.06 | –
378.2 K, Liquid | – | 5.69e-08
379.04 K, Liquid | 618.28 | –
383.42 K, Liquid | – | 5.53e-08
388.15 K, Liquid | – | 5.45e-08
388.18 K, Gas | 178.8 | –
388.52 K, Liquid | 571.45 | –
393.32 K, Liquid | – | 5.4e-08
396.29 K, Liquid | – | 5.35e-08
398.16 K, Liquid | 529.46 | –
398.34 K, Gas | 174.99 | –
399.16 K, Liquid | – | 5.24e-08
403.33 K, Liquid | – | 5.16e-08
406.96 K, Liquid | 483.6 | –
408.14 K, Gas | 169.99 | –
408.63 K, Liquid | – | 5.12e-08
413.33 K, Liquid | – | 5.01e-08
417.94 K, Liquid | 428.66 | –
418.17 K, Gas | 162.61 | –
418.39 K, Liquid | – | 4.93e-08
423.55 K, Gas | – | 2.31e-07
423.61 K, Liquid | – | 4.84e-08
428.12 K, Gas | – | 2.14e-07
428.17 K, Gas | 155.41 | –
428.17 K, Liquid | – | 4.69e-08
428.38 K, Liquid | 382.43 | –
433.15 K, Gas | – | 1.92e-07
433.19 K, Gas | 150.86 | –
433.29 K, Liquid | – | 4.58e-08
436.13 K, Gas | – | 1.77e-07
436.19 K, Liquid | – | 4.49e-08
438.21 K, Gas | 146.71 | –
438.23 K, Liquid | 327.33 | –
438.87 K, Gas | – | 1.64e-07
439.21 K, Liquid | – | 4.43e-08
442.09 K, Gas | – | 1.49e-07
442.35 K, Liquid | – | 4.38e-08
443.15 K, Gas | 140.85 | –
445.16 K, Liquid | – | 4.34e-08
445.19 K, Gas | – | 1.35e-07
447.95 K, Gas | 136.18 | –
448.08 K, Liquid | – | 4.2e-08
448.25 K, Gas | – | 1.2e-07
448.62 K, Liquid | 267.2 | –
451.23 K, Gas | – | 1.08e-07
451.38 K, Liquid | – | 4.08e-08
453.26 K, Gas | 130.15 | –
454.03 K, Gas | – | 9.78e-08
455.2 K, Liquid | – | 3.84e-08
457.04 K, Gas | – | 8.48e-08
457.87 K, Liquid | 209.66 | –
458.28 K, Gas | 123.99 | –
458.4 K, Liquid | – | 3.55e-08
460.05 K, Gas | – | 7.23e-08
460.1 K, Liquid | – | 3.37e-08
462.08 K, Gas | – | 5.64e-08
463.16 K, Gas | 116.39 | –
463.27 K, Liquid | 170.65 | –
463.41 K, Liquid | – | 3.04e-08
464.04 K, Gas | – | 4.16e-08
466.12 K, Gas | – | 3.45e-08
466.14 K, Liquid | 145.22 | –
466.37 K, Liquid | – | 2.59e-08
469.33 K, Liquid | 111.31 | –
